# Where two headings read alike, the source gives them in different places.
# Tests used:
# [1] = Turbidity, derived count rate of scattered light; assay type: physicochemical; conditions: for Count Rate: derived count rate of scattered light (turbidity); for Log10 Count Rate: turbidity, derived count rate of scattered light, data of Figure 2D
# [2] = Zeta-potential measurement; assay type: physicochemical
# Summary of the method: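 In this measurement, peptides aggregated for a day at RT in phosphate-buffered saline (pH 7.4, 1 mg/mL) are diluted into 1 mM potassium chloride, and the electrophoretic mobility is translated into zeta potential by Smoluchowski's relation.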
# [3] = system: HIV-1 infection of TZM-bl cells; test: HIV-1 infectivity enhancement assay, β-galactosidase luminescence; assay type: cell-based; conditions: for Rel-EFC / Log10 Infection Rel EFC: 1.3 µM peptide; for Rel-EFC: infection relative to EF-C (QCKIKQIINMWQ = 1); for Log10 Infection Rel EFC: log10 of infection relative to EF-C; for Log Infectivity: Log10 infection relative to EF-C, TZM-bl cells, asymmetric std dev errors; for Log10 Infection Rel EF-C: HIV-1 infection of TZM-bl cells; for Log10 Inf. rel. to EF-C: log10 of HIV-1 infection of TZM-bl cells relative to EF-C (EF-C = 0); for Log10 of Rel to EFC (Feb2021): Log10 of infection relative to EF-C, all peptides of FigS16; for Abs. Inf.: absolute infection signal, HIV-1 on TZM-bl cells, β-galactosidase luminescence
# [4] = Turbidity, derived count rate of scattered light; assay type: physicochemical; conditions: for Count Rate / kcps: derived count rate of scattered light at 633 nm, 173°, from zeta-potential measurement, 0.1 mg/mL in 1 mM KCl after 1 d at 1 mg/mL in PBS, turbidity / microscopic aggregation, mean of triplicate
# Summary of the method: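 Samples: 1 mg/mL in PBS pH 7.4 (from DMSO), 1 d at RT, then diluted in 1 mM KCl immediately before measurement. Triplicates, two independent runs averaged.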
# [5] = zeta potential of peptide assemblies
# [6] = zeta-potential of peptide, source data of Figure 2C
# [7] = zeta-potential of the peptide assemblies, mean, Figure 3A source data
# [8] = Fig. S7 panel A (plotted against β-sheet content)
# [9] = Log10 of infection rate relative to EF-C, Figure 3A source data
# [10] = infection rate relative to EF-C, log10, data of Figure 2D
# [11] = infection rate relative to EF-C, log10, source data of Figure 2C
# [12] = Log10 of derived count rate of scattered light (turbidity)
# [13] = logarithm of count rate in kcps
# [14] = turbidity, Log10 of derived count rate of scattered light, Figure 3A source data
# [15] = turbidity, log10 of derived count rate of scattered light
# [16] = Fig. S7 panel B (plotted against CR), rounded to two decimals
Substance,Count Rate [1],Log10 Count Rate [1],"Zeta-Pot. [2, 5]","Zeta-Potential / mV [2, 6] [mV]","Zeta-Potential / mV [2, 7] [mV]",Rel-EFC [3],Log10 Infection Rel EFC [3],"Log Infectivity [3, 8]","Log10 Infection Rel EF-C [3, 9]","Log10 Infection Rel EF-C [3, 10]","Log10 Infection Rel EF-C [3, 11]",Log10 Inf. rel. to EF-C [3],"Log10 Count Rate [4, 12]",Count Rate / kcps [4] [kcps],"Log10 Count Rate [4, 13]","Log10 Count Rate [4, 14]","Log10 Count Rate [4, 15]","Log Infectivity [3, 16]",Zeta-Pot. [2],Abs. Inf. [3],also measured
KIKQIIN,64.03,1.806,-11.7,-5.929,-11.7,"0,04","-1,4",-1.4,-1.4,-1.4,-1.4,-1.4,1.806,64,1.806,1.806,1.806,,,,
KIKQIINM,2481,3.395,16.3,18.1,16.3,"0,45","-0,35",-0.3458,-0.35,-0.3458,-0.3458,-0.3458,3.395,2481,,3.395,3.395,-0.35,,,Log10 of Rel to EFC (Feb2021) [3]: -0.35
KIKQIINMWQ,615.5,2.789,,16.2,15.37,"0,35","-0,46",-0.4604,-0.46,-0.4604,-0.4604,-0.4604,2.789,616,2.789,2.789,2.789,-0.46,15.37,9363,Log10 of Rel to EFC (Feb2021) [3]: -0.46
KIRGKFEKED,214.4,2.331,,-7.197,-12.7,"0,06","-1,24",-1.2355,-1.24,-1.2355,-1.2355,-1.2355,2.331,214,,2.331,2.331,,-12.7,643.3,
KKFQKKFQ,73.6,1.867,,-6.175,-9.19,"0,03","-1,54",-1.545,-1.54,-1.545,-1.545,-1.545,1.867,74,,1.867,1.867,,-9.19,423.3,
KNDKND,52.4,1.719,,-11.85,-15,"0,01","-1,98",-1.978,-1.98,-1.978,-1.978,-1.978,1.719,52,,1.719,1.719,,-15,230,
KNERIKNERI,321.9,2.508,,-11.61,-16,"0,01","-1,89",-1.888,-1.89,-1.888,-1.888,-1.888,2.508,322,,2.508,2.508,-1.89,-16,143.3,
KVKGVGK,51.17,1.709,,-7.825,-12.8,"0,03","-1,59",-1.587,-1.59,-1.587,-1.587,-1.587,1.709,51,,1.709,1.709,,-12.8,286.7,
KVKVKVQV,94.37,1.975,,-0.6533,-3.41,"0,02","-1,76",-1.763,-1.76,-1.763,-1.763,-1.763,1.975,94,,1.975,1.975,,-3.41,466.7,
KWKWQW,1545,3.189,7.55,3.331,7.55,"0,01","-1,84",-1.838,-1.84,-1.838,-1.838,,3.189,1545,3.189,3.189,,,,,Log10 Count Rate ([4]; log10 of derived count rate of scattered light (turbidity)): 3.189
